According to US12565497B2 (Hoffmann-La Roche Inc., priority 2020, dated 2026):

Target: Recombinant human Mat2a (Homo sapiens (Human), UniProt P31153)
Assay: Determination of Mat2A activity (384 well absorbance-based assay, Biomol Green)
Assay type: biochemical
Details: 12.5 nM Mat2A, 100 μM ATP and Methionine, 2% DMSO, 120 minutes at RT, absorbance at 635 nm; read-out: MAT2A_LEC IC50 (uM) (Num)
Method in brief: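 Recombinant human Mat2A (12.5 nM) preincubated 15 min at RT with compound (10 μM to 508 pM) in 50 mM HEPES pH 7.5, 50 mM KCl, 50 mM MgCl2, 0.01% Tween 20, 10 mM DTT, 2% DMSO. Reaction started with ATP and methionine (100 μM each), run 120 min at RT, then stopped with Biomol Green; A635 read after 30 min.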

Chain of Recombinant human Mat2a (P31153 whole entry): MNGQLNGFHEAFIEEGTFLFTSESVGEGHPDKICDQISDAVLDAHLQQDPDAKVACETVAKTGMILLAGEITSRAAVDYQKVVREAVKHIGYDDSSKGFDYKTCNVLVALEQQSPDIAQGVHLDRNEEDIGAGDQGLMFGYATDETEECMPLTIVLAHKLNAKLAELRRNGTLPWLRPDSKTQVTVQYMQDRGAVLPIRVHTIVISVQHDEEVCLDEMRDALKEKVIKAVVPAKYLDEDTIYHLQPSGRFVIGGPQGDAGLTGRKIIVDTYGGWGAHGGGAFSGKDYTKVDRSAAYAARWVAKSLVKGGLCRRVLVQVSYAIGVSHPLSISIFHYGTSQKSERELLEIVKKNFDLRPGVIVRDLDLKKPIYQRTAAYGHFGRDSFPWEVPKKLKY

CNC(=O)c1ncc2[nH]nc(C3CC3)c2c1-c1cc(C)c(S(=O)(=O)C2CC2)cc1F [Example 96, 3-cyclopropyl-4-(4-cyclopropylsulfonyl-2-fluoro-5-methyl-phenyl)-N-methyl-1H-pyrazolo[3,4-c]pyridine-5-carboxamide]
IC50: < 0.013 µM

CNC(=O)c1ncc2[nH]nc(C3CC3)c2c1-c1cc(C)c(S(C)(=O)=O)cc1F [Example 97, 3-cyclopropyl-4-(2-fluoro-5-methyl-4-methylsulfonyl-phenyl)-N-methyl-1H-pyrazolo[3,4-c]pyridine-5-carboxamide]
IC50: < 0.013 µM

Cc1cc(-c2c(C(N)=O)ncc3[nH]nc(OC(F)F)c23)ccc1S(C)(=O)=O [Example 98, 3-(difluoromethoxy)-4-(3-methyl-4-methylsulfonyl-phenyl)-1H-pyrazolo[3,4-c]pyridine-5-carboxamide]
IC50: < 0.013 µM

CC(=O)NCCOCCNc1cnc(-c2ccc(S(C)(=O)=O)c(C)c2)c2c(C3CC3)n[nH]c12 [Example 99, N-[2-[2-[[3-cyclopropyl-4-(3-methyl-4-methylsulfonyl-phenyl)-1H-pyrazolo[4,3-c]pyridin-7-yl]amino]ethoxy]ethyl]acetamide]
IC50: 0.07 µM

CC(=O)NCCCNc1cnc(-c2ccc(S(C)(=O)=O)c(C)c2)c2c(C3CC3)n[nH]c12 [Example 100, N-[3-[[3-cyclopropyl-4-(3-methyl-4-methylsulfonyl-phenyl)-1H-pyrazolo[4,3-c]pyridin-7-yl]amino]propyl]acetamide]
IC50: 0.03 µM

Cc1cc(-c2ncc(NCCOCCN)c3[nH]nc(C4CC4)c23)ccc1S(C)(=O)=O [Example 101, N-[2-(2-aminoethoxy)ethyl]-3-cyclopropyl-4-(3-methyl-4-methylsulfonyl-phenyl)-1H-pyrazolo[4,3-c]pyridin-7-amine]
IC50: 0.14 µM

Cc1cc(-c2ncc(NCCCCN)c3[nH]nc(C4CC4)c23)ccc1S(C)(=O)=O [Example 102, N′-[3-cyclopropyl-4-(3-methyl-4-methylsulfonyl-phenyl)-1H-pyrazolo[4,3-c]pyridin-7-yl]butane-1,4-diamine]
IC50: 0.06 µM

CC(=O)NCCCCNc1cnc(-c2ccc(S(C)(=O)=O)c(C)c2)c2c(C3CC3)n[nH]c12 [Example 103, N-[4-[[3-cyclopropyl-4-(3-methyl-4-methylsulfonyl-phenyl)-1H-pyrazolo[4,3-c]pyridin-7-yl]amino]butyl]acetamide]
IC50: 0.04 µM

Cc1cc(-c2ncc(NCCCN)c3[nH]nc(C4CC4)c23)ccc1S(C)(=O)=O [Example 104, N′-[3-cyclopropyl-4-(3-methyl-4-methylsulfonyl-phenyl)-1H-pyrazolo[4,3-c]pyridin-7-yl]propane-1,3-diamine]
IC50: 0.04 µM

Cc1cc(-c2c(C#N)ncc3[nH]nc(OC(F)F)c23)ccc1S(=O)(=O)C(F)F [Example 105, 3-(difluoromethoxy)-4-(4-((difluoromethyl)sulfonyl)-3-methylphenyl)-1H-pyrazolo[3,4-c]pyridine-5-carbonitrile]
IC50: < 0.013 µM

Cc1cc(-c2c(C(N)=O)ncc3[nH]nc(OC(F)F)c23)ccc1S(=O)(=O)C(F)F [Example 106, 3-(difluoromethoxy)-4-[4-(difluoromethylsulfonyl)-3-methyl-phenyl]-1H-pyrazolo[3,4-c]pyridine-5-carboxamide]
IC50: < 0.013 µM

Cc1cc(-c2c(C(=O)NC3COC3)ncc3[nH]nc(OC(F)F)c23)ccc1S(=O)(=O)C(F)F [Example 107, 3-(difluoromethoxy)-4-[4-(difluoromethylsulfonyl)-3-methyl-phenyl]-N-(oxetan-3-yl)-1H-pyrazolo[3,4-c]pyridine-5-carboxamide]
IC50: 0.013 µM

CNC(=O)c1ncc2[nH]nc(OC(F)F)c2c1-c1ccc(S(=O)(=O)C(F)F)c(C)c1 [Example 108]
IC50: 0.015 µM

CNC(=O)c1ncc2[nH]nc(OC(F)F)c2c1-c1ccc(S(C)(=O)=O)c(C)c1 [Example 110, 3-(difluoromethoxy)-N-methyl-4-(3-methyl-4-methylsulfonyl-phenyl)-1H-pyrazolo[3,4-c]pyridine-5-carboxamide]
IC50: < 0.013 µM

Cc1cc(-c2c(S(=O)(=O)C3COC3)ccc3[nH]nc(OC(F)F)c23)ccc1S(C)(=O)=O [Example 111, 3-(difluoromethoxy)-4-(3-methyl-4-methylsulfonyl-phenyl)-5-(oxetan-3-ylsulfonyl)-1H-indazole]
IC50: < 0.013 µM

CN=S(C)(=O)c1ccc2[nH]nc(C3CC3)c2c1-c1ccc(S(C)(=O)=O)c(C)c1 (stereo not drawn) [Example 113, [3-cyclopropyl-4-(3-methyl-4-methylsulfonyl-phenyl)-1H-indazol-5-yl]-methyl-methylimino-oxo-λ^6-sulfane]
IC50: 0.31 µM

Cc1cc(-c2c(S(=O)(=O)N(C)C)ccc3[nH]nc(C4CC4)c23)ccc1S(C)(=O)=O [Example 114, 3-cyclopropyl-N,N-dimethyl-4-(3-methyl-4-methylsulfonyl-phenyl)-1H-indazole-5-sulfonamide]
IC50: 0.03 µM

CNS(=O)(=O)c1ccc2[nH]nc(C3CC3)c2c1-c1ccc(S(C)(=O)=O)c(C)c1 [Example 115, 3-cyclopropyl-N-methyl-4-(3-methyl-4-methylsulfonyl-phenyl)-1H-indazole-5-sulfonamide]
IC50: 0.03 µM

Cc1cc(-c2c(C(N)=O)ncc3[nH]nc(OC(F)F)c23)ccc1S(=O)(=O)C1CC1 [Example 116, 4-(4-cyclopropylsulfonyl-3-methyl-phenyl)-3-(difluoromethoxy)-1H-pyrazolo[3,4-c]pyridine-5-carboxamide]
IC50: < 0.013 µM

Cc1cc(-c2c(S(=O)(=O)C3CC3)ccc3[nH]nc(OC(F)F)c23)ccc1S(C)(=O)=O [Example 118, 5-cyclopropylsulfonyl-3-(difluoromethoxy)-4-(3-methyl-4-methylsulfonyl-phenyl)-1H-indazole]
IC50: < 0.013 µM

Cc1cc(-c2c(S(C)(=O)=O)ccc3[nH]nc(OC(F)F)c23)c(F)cc1S(C)(=O)=O [Example 119, 3-(difluoromethoxy)-4-(2-fluoro-5-methyl-4-methylsulfonyl-phenyl)-5-methylsulfonyl-1H-indazole]
IC50: 0.02 µM
